Results on 2 molecules are retold here after patent publication US7642047B2, “Method of screening cell death modulators” (priority 2003, dated 2010).

For test [1], the system named is GDNF-deprived sympathetic neurons. Put plainly: Survival assay of GDNF-deprived sympathetic neurons. Set-up: protection of GDNF-deprived neurons (FIG. 5B legend): dose or concentration left out as unconfirmed. The test is classed as cell-based, rat. The procedure:
(§1) Briefly, the neurons of postnatal day-1-2 Han/Wi strain rats were grown six days in vitro on polyornithine -laminin-coated dishes or glass coverslips with 100 ng/ml of human GDNF (PeproTech) or 30 ng/ml of 2.5 S mouse NGF (Promega). […] To reduce the number of nonneuronal cells, 1 μM cytosine arabinoside (Sigma-Aldrich) was always included next day after plating, but was not added to factor-deprived neurons. To deprive GDNF, the cultures were washed gently three times with GDNF-free culture medium. To remove NGF, the cultures were washed once with NGF-free medium and function-blocking anti-NGF antibodies (Roche) were added. The compounds of interest were added and initial neurons were counted immediately after neurotrophic factor deprivation. Living neurons were counted daily by a “blind” experimenter not aware of the identity of experimental groups. The following compounds were assayed: broad-range caspase inhibitor boc-aspartyl(OMe) -fluoromethylketone. […] When the compounds were dissolved in DMSO, the same amount of DMSO was always added to the control cultures.
(§2) In all studies described below, the neurons from newborn rat SCG were maintained in sister dishes with GDNF (100 ng/ml) or NGF (30 ng/ml) for six DIV, then deprived of these factors for 48 or 72 hours, and analysed. NGF- and GDNF-responsive neurons were always analysed in parallel and received identical treatment.

Test [2] concerns NGF-deprived sympathetic neurons. Put plainly: Survival assay of NGF-deprived sympathetic neurons. The test is classed as cell-based, rat. More on the design: protection of NGF-deprived neurons (FIG. 5B legend): dose or concentration left out as unconfirmed. As to the method:
as §1, §2

Test [3] has as its system newborn rat sympathetic neurons from the superior cervical ganglion. Put plainly: Survival of newly isolated sympathetic neurons maintained with neurotrophic factor. The test is classed as cell-based. The procedure:
FIGS. 1A, 1B, and 1C. […] (1A) Newly isolated neurons were grown with GDNF (100 ng/ml), NGF (30 ng/ml) or without neurotrophic factors for eight days. The living neurons were counted daily and expressed as percent of initial neurons, counted two hours after plating. The mean±standard error of the mean of three independent cultures is shown for each data point. (1B) Newly isolated neurons were maintained with different doses of GDNF for six days. The living neurons were counted daily and expressed as percent of initial neurons, counted two hours after plating. For comparison, survival with NGF (30 ng/ml) is also shown. […] Living neurons were counted daily and expressed as percent of initial neurons counted immediately after factor deprivation. […]
Briefly, the neurons of postnatal day-1-2 Han/Wi strain rats were grown six days in vitro on polyornithine -laminin-coated dishes or glass coverslips with 100 ng/ml of human GDNF (PeproTech) or 30 ng/ml of 2.5 S mouse NGF (Promega). […] The compounds of interest were added and initial neurons were counted immediately after neurotrophic factor deprivation. Living neurons were counted daily by a “blind” experimenter not aware of the identity of experimental groups. […]
In similar conditions, about 98% of the NGF-maintained neurons had survived (FIG. 1 A). […] NGF- and GDNF-responsive neurons were always analysed in parallel and received identical treatment. […]

The mark [4] stands for this setting: BAF at 50 μM, living neurons counted 72 h after deprivation.
The mark [5] stands for this setting: living neurons counted 72 h after treatment and deprivation.

In the case of `COC(=O)CC(NC(=O)OC(C)(C)C)C(=O)CF` (stereo not drawn) [BAF, boc-aspartyl(OMe)-fluoromethylketone], the “effect on death of GDNF-deprived neurons” value in test [1] (setting [4]) is “almost completely blocked death”. The “protection of GDNF-deprived neurons (FIG. 5B legend)” value in test [1] (setting [5]) is “protects”. Besides, the “effect on death of NGF-deprived neurons” value in test [2] (setting [4]) is on record as “almost completely blocked death”. Moreover, the “protection of NGF-deprived neurons (FIG. 5B legend)” value in test [2] (setting [5]) is “protects”.

B1: GDNF: human GDNF (PeproTech), glial cell line-derived neurotrophic factor (protein, UniProt P39905 78-211, looked up)
Glial cell line-derived …: SPDKQMAVLPRRERNRQAAAANPENSRGKGRRGQRGKNRGCVLTAIHLNVTDLGLGYETKEELIFRYCSGSCDAAETTYDKILKNLSRNRRLVSDKVGQACCRPIAFDDDLSFLDDNLVYHILRKHSAKRCGCI
On to B1, for which, in test [3] (by sixth day in vitro, GDNF 100 ng/ml or NGF 30 ng/ml, percent of initial neurons counted two hours after plating), the “initially plated neurons survived” value is recorded as “about 34%”. Further, in test [3] (dose-dependence study, neurons maintained six days), the “saturating concentration for SCG neurons” value was found to be 100 ng/mL.
